2 compounds from patent US10786484B2, “Mono- or di-substituted indole derivatives as dengue viral replication inhibitors” (Janssen Pharmaceuticals, Inc., priority 2015, dated 2020) can be followed below.

One series is described as follows: in vitro. In kind it is cell-based. The conditions noted are these: African green monkey, CC50. As to the method: (§1) The antiviral activity of the compounds of the invention was tested against DENV-1 strain TC974#666 (NCPV), DENV-2 strain 16681, DENV-3 strain H87 (NCPV) and DENV-4 strains H241 (NCPV) and EDEN (SG/06K2270DK1/2005; GenBank accession number QG398256) in a RT-qPCR assay. Therefore, Vero cells were infected with either DENV-1, or -2, or -3, or -4 in the presence or absence of test compounds. At day 3 post-infection, the cells were lysed and cell lysates were used to prepare cDNA of both a viral target (the 3′UTR of DENV; Table 2) and a cellular reference gene (β-actin, Table 2). Subsequently, a duplex real time PCR was performed on a Lightcycler480 instrument. The generated Cp value is inversely proportional to the amount of RNA expression of these targets. Inhibition of DENV replication by a test compound results in a shift of Cp's for the 3′UTR gene. On the other hand, if a test compound is toxic to the cells, a similar effect on β-actin expression will be observed. The comparative ΔΔCp method is used to calculate EC50, which is based on the relative gene expression of the target gene (3′UTR) normalized with the cellular housekeeping gene (β-actin). In addition, CC50 values are determined based on the Cp values acquired for the housekeeping gene β-actin.
(§2) The culture medium consisted of minimal essential medium supplemented with 2% of heat-inactivated fetal calf serum, 0.04% gentamycin (50 mg/mL) and 2 mM of L-glutamine. Vero cells, obtained from ECACC, were suspended in culture medium and 75 μL/well was added in 96-well plates (10000 cells/well), which already contain the antiviral compounds. […] In addition, each plate contains wells which are assigned as virus controls (containing cells and virus in the absence of compound) and cell controls (containing cells in the absence of virus and compound). Once the cells were added in the plates, the plates were incubated in a fully humidified incubator (37° C., 5% CO2) until the next day. Dengue viruses serotype-1, 2, 3 and 4 were diluted in order to obtain a Cp of ˜22-24 in the assay. Therefore, 25 μL of virus suspension, was added to all the wells containing test compound and to the wells assigned as virus control. In parallel, 25 μL of culture medium was added to the cell controls. Next, the plates were incubated for 3 days in a fully humidified incubator (37° C., 5% CO2). After 3 days, the supernatant was removed from the wells and the cells were washed twice with ice-cold PBS (−100 μL). The cell pellets within the 96-well plates were stored at −80° C. for at least 1 day. Next, RNA was extracted using the Cells-to-CT™ lysis kit, according to the manufacturer's guideline (Life Technologies). The cell lysates can be stored at −80° C. or immediately used in the reverse transcription step.
(§3) Using the LightCycler software and an in-house LIMS system, dose response curves for each compound were calculated and the half maximal effective concentration (EC50) and the half maximal cytotoxic concentration (CC50) were determined (Tables 5-8).

In series [1] the test system is DENV-4 strain EDEN (SG/06K2270DK1/2005). Description: Tetravalent RT-qPCR assay Protocol A, serotype 4 EDEN. Type of series: cell-based. The conditions noted are these: Dengue virus, DENV4, 72 h; RT-qPCR serotype 4 EDEN, Vero cells, day 3. As to the method:
as §1, §2
(§4) In preparation of the reverse transcription step, mix A (table 3A) was prepared and 7.57 μL/well was dispensed in a 96-well plate. After addition of 5 μL of the cell lysates, a five minute denaturation step at 75° C. was performed (table 3B). Afterwards, 7.43 μL of mix B was added (table 3C) and the reverse transcription step was initiated (table 3D) to generate cDNA.
(§5) Finally, a RT-qPCR mix was prepared, mix C (table 4A), and 22.02 μL/well was dispensed in 96-well LightCycler qPCR plates to which 3 μL of cDNA was added and the qPCR was performed according to the conditions in table 4B on a LightCycler 480.
as §3

The test system of a further series is DENV-4 strain H241. Description: Tetravalent RT-qPCR assay Protocol A, serotype 4 H241. Type of series: cell-based. The conditions noted are these: Dengue virus, DENV4, 72 h; RT-qPCR serotype 4 H241, Vero cells, day 3. The protocol: as §1, §2, §4, §5, §3
In general terms: Quantitative PCR measures a nucleic acid by following its amplification.

The test system of series [2] is DENV-2 16681 strain labeled with eGFP. As to the kind of experiment: DENV-2 antiviral assay (eGFP fluorescence read-out in Vero cells). Type of series: cell-based, Dengue virus. Particulars: DENV-2 16681 eGFP, MOI 0.5, 3 days. The method in brief: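 Vero cells (2500/well) pre-plated with compound (9-step 5-fold series), infected next day with eGFP-labeled DENV-2 16681 at MOI 0.5 in MEM with 2% FCS; 3 days at 37° C. eGFP fluorescence read at 488 nm; inhibition versus virus and cell controls, EC50 by linear interpolation.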

The subject of the next series is DENV-3 strain H87. As to the kind of experiment: Tetravalent RT-qPCR assay Protocol A, serotype 3. Type of series: cell-based. The conditions noted are these: Dengue virus, DENV3, 72 h; RT-qPCR serotype 3 H87, Vero cells, day 3. As to the method:
as §1, §2, §4, §5, §3

Another series deals with DENV-1 strain TC974#666. As to the kind of experiment: Tetravalent RT-qPCR assay Protocol A, serotype 1. Particulars: Dengue virus, DENV1, 72 h; RT-qPCR serotype 1 TC974#666, Vero cells, day 3. In kind it is cell-based. As to the method:
as §1, §2, §4, §5, §3

In series [3] the test system is Vero cells. The conditions noted are these: African green monkey.
The next series has as its system DENV-2 strain 16681. As to the kind of experiment: Tetravalent RT-qPCR assay Protocol A, serotype 2. The conditions noted are these: Dengue virus, DENV2, 72 h; RT-qPCR serotype 2 16681, Vero cells, day 3. Type of series: cell-based. As to the method:
as §1, §2, §4, §5, §3

Series [4] relates to Vero cells. As to the kind of experiment: in vitro. In kind it is cell-based. Particulars: African green monkey, 3 days. As to the method: as §1, §2, §3

Where two headings read alike, the source gives them in different places.

What is called CC50 is the concentration at which the toxic effect on the cells reaches its halfway point. Usually EC50 stands for the concentration needed to bring the measured effect to its halfway point. Consider `COc1cc(NC(C(=O)c2c[nH]c3cc(F)c(F)cc23)c2ccc(F)cc2OCCO)cc(S(C)(=O)=O)c1` (single isomer, unassigned) [Compound 5A, 1-(5,6-difluoro-1H-indol-3-yl)-2-(4-fluoro-2-(2-hydroxyethoxy)phenyl)-2-((3-methoxy-5-(methylsulfonyl)phenyl)-amino)ethanone], for which the CC50 at 3 days in the series “in vitro” was greater than 2500 nM. The EC50 in [1] turned out to be 3.7 nM; in the series with DENV-4 strain H241, 180 nM; in series [2], 0.51 nM; in the series with DENV-3 strain H87 it was 61 nM; with DENV-1 strain TC974#666, 4.1 nM; with DENV-2 strain 16681, 0.71 nM. The same compound registered a CC50 with Vero cells [3] of 3400 nM.
For the compound `COc1cc(NC(C(=O)c2c[nH]c3cc(OC)c(OC(F)(F)F)cc23)c2ccc(F)cc2OCCO)cc(S(C)(=O)=O)c1` (single isomer, unassigned) [Compound 11B, 2-(4-fluoro-2-(2-hydroxyethoxy)phenyl)-2-((3-methoxy-5-(methyl-sulfonyl)phenyl)amino)-1-(6-methoxy-5-(trifluoromethoxy)-1H-indol-3-yl)ethanone], in “in vitro”, the 50% cytotoxic concentration (CC50) at 3 days is greater than 2500 nM. For the same compound, the CC50 with Vero cells [4] was greater than 2500 nM; with Vero cells [3] it was 2400 nM. The EC50 was 34 nM with DENV-4 strain H241; 0.2 nM in [2]; 7.3 nM in the series with DENV-3 strain H87; 0.6 nM in the series with DENV-1 strain TC974#666; 0.14 nM in the series with DENV-2 strain 16681.
